Assay results as given in patent US8816079B2, “Amide derivative and use thereof as medicine” (Mitsubishi Tanabe Pharma Corporation, priority 2010, dated 2014).

Legend:
[1] = system: proMMP-2 production by THP-1 cell; assay: hemostatic type proMMP-2 production by THP-1 cell; format: cell-based, human; conditions: THP-1 cells without stimulation, 24 hr, test compound 2 μM
Protocol: (§1) THP-1 cell (human monocytic leukemia cell line) was adjusted to 1×10^7 cells/mL in a culture medium (10% fetal bovine serum/RPMI1640 medium), and dispensed to a 96 well multiplate. This was equilibrated under the conditions of 37° C./5% CO2, and a culture medium containing a test compound was added thereto. After incubation under the conditions of 37° C./5% CO2 for 24 hr, the culture medium was centrifuged and the culture supernatant was collected, which was subjected to the following measurement.
Quantification of proMMP-2 in Culture Supernatant
The proMMP-2 concentration of the collected culture supernatant was quantified using a commercially available measurement reagent (manufactured by GE Healthcare, MMP-2, Human, Biotrak ELISA System).
Calculation of proMMP-2 Suppression Rate
The proMMP-2 suppression rate of the test compound was calculated from the following formula: % suppress=100−((Test/Cont)×100). wherein Cont is proMMP-2 concentration of culture supernatant without addition of a test compound (added with solvent alone) and Test is proMMP-2 concentration of culture supernatant with addition of a test compound.

[2] = system: proMMP-9 production by human TNFα stimulated THP-1 cell; assay: proMMP-9 production by human TNFα stimulated THP-1 cell; format: cell-based; conditions: THP-1 cells, human TNFα 10 ng/mL, 24 hr; IC50 from 3 points at 10, 100 and 1,000 nmol/L; read-out: proMMP-9 production suppression (IC50)
Protocol: as §1, with “containing human TNFα (final concentration 10 ng/mL) and” for “containing”
Quantification of proMMP-9 in Culture Supernatant
The proMMP-9 concentration of the collected culture supernatant was quantified using a commercially available measurement reagent (manufactured by GE Healthcare, MMP-9, Human, Biotrak ELISA System).
Calculation of proMMP-9 Suppression Rate
The proMMP-9 suppression rate of the test compound was calculated from the following formula: % suppression=100−((Test−Min)/(Max−Min)×100) wherein Max is proMMP-9 concentration of culture supernatant induced by stimulation with human TNFα, without addition of a test compound (added with solvent alone) Min is proMMP-9 concentration of culture supernatant without addition of a test compound (added with solvent alone) and without stimulation with human TNFα, and Test is proMMP-9 concentration of culture supernatant induced by stimulation with human TNFα when a test compound is added.
Furthermore, the concentration of the test compound necessary for suppressing proMMP-9 production by human TNFα stimulated THP-1 cell by 50% ([…]) was calculated from 3 points of proMMP-9 suppression rate at test compound concentrations of 10, 100 and 1,000 nmol/L.

[3] = system: rat adjuvant induced arthritis model; assay: hindpaw edema of rat adjuvant induced arthritis model; format: in vivo; conditions: LEW rat, 10 mg/kg oral once a day day 15 to day 20, difference of hindpaw volume day 15 to day 21; disease group (solvent) 0.63 ± 0.13
Protocol: Anesthetized rats (LEW, male, 6-week-old) were immunized with M. Butyricum (5 mg/mL) at a dose of 0.1 mL/body by subcutaneous administration from the tail root. […] […] The amount of hindpaw edema was the difference in the amount between hindpaw volume on day 15 and that on day 21.

[4] = system: rat dinitrobenzene-induced colitis model; assay: large intestine weight increase of rat dinitrobenzene-induced colitis model; format: in vivo; conditions: Wistar rat, 10 mg/kg oral once a day, day 8; normal group 0.215 ± 0.011, pathology group 0.633 ± 0.041
Protocol: A dinitrobenzene solution (30 mg/0.1 mL) was injected into the large intestine of anesthetized rats (Wistar, male, 6-week-old). […] On day 8, the large intestine was isolated from euthanized rats, and the wet weight thereof was measured. The large intestine weight was amended to the weight per 100 g body weight of the rats on day 8.

[5] = system: rat monoiodoacetic acid-induced osteoarthritis model; assay: articular joints injury of rat monoiodoacetic acid-induced osteoarthritis model; format: in vivo; conditions: LEW rat, 10 mg/kg oral once a day to day 6, scored on day 7; disease group (solvent) 5.8 ± 0.2
Protocol: Monoiodoacetic acid solution (0.3 mg/25 μL) was injected into the right hindpaw knee joint cavity of anesthetized rats (LEW, male, 7-week-old). A test compound was orally administered once a day from immediately after monoiodoacetic acid injection to day 6 at a dose of 10 mg/kg. On day 7, right hindpaw knee joint was taken from euthanized rats, and fixed with 10% neutral formalin solution. A pathology specimen of knee joint was prepared, stained with Hematoxylin Eosin and Safranine O, and the state of joint cartilage injury was scored under microscopic observation. For articular joint injury scores, changes in each pathological finding in medial condyle of femur and medial condyle of tibia (cartilage surface tuberosity, erosion/ulcer/fibrillation, chondrocyte disorganization/disappearance/hypertrophy, reduction of Safranine staining) were divided into mild, moderate and severe according to the method of Kobayashi et al. (Kobayashi K et al. J. Vet. Med. Sci. 65, 1195 1199 2003), and indicated in the scores of 1, 2 and 3 and totaled. Furthermore, an average of the score of medial condyle of femur and that of medial condyle of tibia was determined and used as an articular joint injury score.

IC50 [2] [nM] | Compound | also measured
10 | Cc1cnc(N2CCN(C(=O)c3ccc(N4CCNC4=O)cc3F)CC2)c(C)c1 [Example 416, 1-{4-[4-(3,5-dimethylpyridin-2-yl)piperazine-1-carbonyl]-3-fluorophenyl}imidazolidin-2-one] | –
7 | Cc1cc(C)c(N2CCN(C(=O)c3ccc(N4C(=O)NC(=O)C4C)nc3)CC2)nc1C (centres unmarked) [Example 549, 5-methyl-1-{5-[4-(3,5,6-trimethylpyridin-2-yl)piperazine-1-carbonyl]pyridin-2-yl}imidazolidine-2,4-dione] | –
41 | Cc1cc(C2CC2)cnc1N1CCN(C(=O)c2cnc(N3C(=O)CCC3C)cn2)CC1 (centres unmarked) [Example 687, 1-{5-[4-(5-cyclopropyl-3-methylpyridin-2-yl)piperazine-1-carbonyl]pyrazin-2-yl}-5-methylpyrrolidin-2-one] | –
36 | CC(=O)Nc1ccc(C(=O)N2CCN(c3ccc(C)cc3C)CC2)c(S(C)(=O)=O)c1 [Example 474, N-{4-[4-(2,4-dimethylphenyl)piperazine-1-carbonyl]-3-methanesulfonylphenyl}acetamide] | –
102 | Cc1cnc(N2CCN(C(=O)c3ccc(N(C)S(C)(=O)=O)cc3F)CC2)c(C)c1 [Example 494, N-{4-[4-(3,5-dimethylpyridin-2-yl)piperazine-1-carbonyl]-3-fluorophenyl}-N-methylmethanesulfonamide] | –

Continued, compound first:

Compound | IC50 [2] [nM] | also measured
Cc1cnc(N2CCN(C(=O)c3ccc(N4CCCS4(=O)=O)cc3F)CC2)c(C)c1 [Example 130, [4-(3,5-dimethylpyridin-2-yl)piperazin-1-yl][4-(1,1-dioxo-1λ^6-isothiazolidin-2-yl)-2-fluorophenyl]methanone] | 44 | MMP-2 production suppression (% suppression, 2 μM) [1]: 8.0%
Cc1cnc(N2CCN(C(=O)c3ccc(N4CCCC4=O)cc3F)CC2)c(C)c1 [Example 282, 1-{4-[4-(3,5-dimethylpyridin-2-yl)piperazine-1-carbonyl]-3-fluorophenyl}pyrrolidin-2-one] | 76 | –
Cc1cc(C2CC2)cnc1N1CCN(C(=O)c2ccc(CN3CCCS3(=O)=O)cc2)CC1 [Example 245, [4-(5-cyclopropyl-3-methylpyridin-2-yl)piperazin-1-yl][4-(1,1-dioxo-1λ^6-isothiazolidin-2-ylmethyl)phenyl]methanone] | 73 | –
Cc1ccc(N2CCN(C(=O)c3ccc(N4CCCS4(=O)=O)cc3S(C)(=O)=O)CC2)c(C)c1 [Example 11, [4-(2,4-dimethylphenyl)piperazin-1-yl][4-(1,1-dioxo-1λ^6-isothiazolidin-2-yl)-2-methanesulfonylphenyl]methanone] | – | hindpaw edema volume of compound administration group [3]: 0.24 ± 0.10; large intestine weight (g/100 g body weight) [4]: 0.509 ± 0.051 g/100 g body weight
Cc1cnc(N2CCN(C(=O)c3ccc(N4CCCS4(=O)=O)cc3C)CC2)c(C)c1 [Example 154, [4-(3,5-Dimethylpyridin-2-yl)piperazin-1-yl][4-(1,1-dioxo-1λ^6-isothiazolidin-2-yl)-2-methylphenyl]methanone] | 82 | MMP-2 production suppression (% suppression, 2 μM) [1]: 13.0%; articular joint injury score of compound administration group [5]: 4.6 ± 0.4
